Source: patent publication US11136317B2, “NADPH oxidase 4 inhibitors” (ACTELION PHARMACEUTICALS LTD, priority 2015, dated 2021)
pIC50: −log10 of the molar value.

Each molecule was assayed against T1, human NOX4 (Homo sapiens, UniProt Q9NPH5) (assay: Amplex Red activity assay (cellular H2O2 formation in hNOX4 T-REx-293 cells)). Conditions: tet-induced 24 h, extracellular H2O2 by Amplex Red, 60 min 25° C., geometric mean if determined several times.
T1 construct: The full-length human NOX4 (NM_016931.3) transcript was cloned; expressed in transfected cells
T1 sequence (Q9NPH5 1-578): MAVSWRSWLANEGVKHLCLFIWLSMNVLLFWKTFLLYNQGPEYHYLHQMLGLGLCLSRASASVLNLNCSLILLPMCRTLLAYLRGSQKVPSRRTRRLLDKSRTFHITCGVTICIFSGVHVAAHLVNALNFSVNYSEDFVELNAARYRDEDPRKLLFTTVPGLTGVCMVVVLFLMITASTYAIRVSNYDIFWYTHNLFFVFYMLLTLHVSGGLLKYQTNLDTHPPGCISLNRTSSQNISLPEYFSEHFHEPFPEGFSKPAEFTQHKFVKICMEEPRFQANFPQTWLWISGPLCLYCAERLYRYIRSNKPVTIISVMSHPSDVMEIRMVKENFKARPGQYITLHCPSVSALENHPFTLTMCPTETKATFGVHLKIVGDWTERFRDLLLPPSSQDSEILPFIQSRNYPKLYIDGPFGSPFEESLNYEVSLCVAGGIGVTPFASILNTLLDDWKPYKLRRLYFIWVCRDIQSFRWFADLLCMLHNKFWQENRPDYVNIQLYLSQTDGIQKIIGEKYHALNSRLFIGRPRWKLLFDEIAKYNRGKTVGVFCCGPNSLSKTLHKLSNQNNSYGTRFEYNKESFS
T1 sequence (P13498 1-195 partner): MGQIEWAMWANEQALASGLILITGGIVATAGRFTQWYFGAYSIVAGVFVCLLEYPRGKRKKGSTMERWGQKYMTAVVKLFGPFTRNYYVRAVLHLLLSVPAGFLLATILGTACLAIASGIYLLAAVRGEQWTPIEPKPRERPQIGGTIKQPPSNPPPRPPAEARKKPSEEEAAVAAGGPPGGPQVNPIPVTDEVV
Assay type: cell-based
Procedure, shortened: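 Tet-induced (1 μg/mL, 24 h) HEK293 T-REx cells stably expressing full-length human NOX4, 20 000 cells/well, exposed to compounds (10 concentrations, 50 μM to 100 nM; 1.25% DMSO) for 60 min at 25°C. Extracellular H2O2 detected by Amplex Red resorufin fluorescence (ex 550/em 600 nm) versus vehicle; IC50 calculated.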

pIC50	SMILES
5.47	O=C(Nc1ccc2sc(N3CCC4(COC4)C3)nc2c1)c1ccc2c(c1)CCO2 [Example 115, 2,3-Dihydro-benzofuran-5-carboxylic acid [2-(2-oxa-6-aza-spiro[3.4]oct-6-yl)-benzothiazol-5-yl]-amide]
5.66	O=C(Nc1ccc2sc(N3CCC[C@@H](O)C3)nc2c1)c1ccc2c(c1)CCO2 [Example 116, 2,3-Dihydro-benzofuran-5-carboxylic acid [2-((R)-3-hydroxy-piperidin-1-yl)-benzothiazol-5-yl]-amide]
5.42	CN(C)CC1CCCN1c1nc2cc(NC(=O)c3ccc4c(c3)CCO4)ccc2s1 (stereo not shown) [Example 117, 2,3-Dihydro-benzofuran-5-carboxylic acid [2-(2-dimethylaminomethyl-pyrrolidin-1-yl)-benzothiazol-5-yl]-amide]
6.30	O=C(Nc1ccc2oc(N3CCC3)nc2c1)c1ccc2c(c1)CCO2 [Example 118, 2,3-Dihydro-benzofuran-5-carboxylic acid (2-azetidin-1-yl-benzooxazol-5-yl)-amide]
6.00	CCNc1nc2cc(NC(=O)c3ccc4c(c3)CCO4)ccc2o1 [Example 119, 2,3-Dihydro-benzofuran-5-carboxylic acid (2-ethylamino-benzooxazol-5-yl)-amide]
5.63	O=C(Nc1ccc2oc(N3CC(c4ccccn4)C3)nc2c1)c1ccc2c(c1)CCO2 [Example 120, 2,3-Dihydro-benzofuran-5-carboxylic acid [2-(3-pyridin-2-yl-azetidin-1-yl)-benzooxazol-5-yl]-amide]
5.02	O=C(Nc1ccc2oc(N3CC(F)(F)C3)nc2c1)c1ccc2c(c1)OCO2 [Example 121, Benzo[1,3]dioxole-5-carboxylic acid [2-(3,3-difluoro-azetidin-1-yl)-benzooxazol-5-yl]-amide]
5.68	O=C(Nc1ccc2oc(N3CC(O)C3)nc2c1)c1ccc2c(c1)OCO2 [Example 122, Benzo[1,3]dioxole-5-carboxylic acid [2-(3-hydroxy-azetidin-1-yl)-benzooxazol-5-yl]-amide]
6.36	O=C(Nc1ccc2oc(N3CCC34CCC4)nc2c1)c1ccc2c(c1)OCO2 [Example 123, Benzo[1,3]dioxole-5-carboxylic acid [2-(1-aza-spiro[3.3]hept-1-yl)-benzooxazol-5-yl]-amide]
6.38	O=C(Nc1ccc2oc(N3CCC34COC4)nc2c1)c1ccc2c(c1)OCO2 [Example 124, Benzo[1,3]dioxole-5-carboxylic acid [2-(6-oxa-1-aza-spiro[3.3]hept-1-yl)-benzooxazol-5-yl]-amide]
6.11	O=C(Nc1ccc2oc(N3CCC34CCOC4)nc2c1)c1ccc2c(c1)OCO2 (stereo not shown) [Example 125, Benzo[1,3]dioxole-5-carboxylic acid [2-(6-oxa-1-aza-spiro[3.4]oct-1-yl)-benzooxazol-5-yl]-amide]
6.12	O=C(Nc1ccc2oc(N3CCC34CCOCC4)nc2c1)c1ccc2c(c1)OCO2 [Example 126, Benzo[1,3]dioxole-5-carboxylic acid [2-(7-oxa-1-aza-spiro[3.5]non-1-yl)-benzooxazol-5-yl]-amide]
5.90	O=C(Nc1ccc2oc(N3CCCC3)nc2c1)c1ccc2c(c1)OCO2 [Example 127, Benzo[1,3]dioxole-5-carboxylic acid (2-pyrrolidin-1-yl-benzooxazol-5-yl)-amide]
5.76	O=C(Nc1ccc2oc(N3CCCC34COC4)nc2c1)c1ccc2c(c1)OCO2 [Example 128, Benzo[1,3]dioxole-5-carboxylic acid [2-(2-oxa-5-aza-spiro[3.4]oct-5-yl)-benzooxazol-5-yl]-amide]
6.07	O=C(Nc1ccc2oc(N3CCCCC3)nc2c1)c1ccc2c(c1)OCO2 [Example 129, Benzo[1,3]dioxole-5-carboxylic acid (2-piperidin-1-yl-benzooxazol-5-yl)-amide]
6.00	O=C(Nc1ccc2oc(N3CCCC(F)(F)C3)nc2c1)c1ccc2c(c1)OCO2 [Example 130, Benzo[1,3]dioxole-5-carboxylic acid [2-(3,3-difluoro-piperidin-1-yl)-benzooxazol-5-yl]-amide]
5.98	COC1CCN(c2nc3cc(NC(=O)c4ccc5c(c4)OCO5)ccc3o2)CC1 [Example 131, Benzo[1,3]dioxole-5-carboxylic acid [2-(4-methoxy-piperidin-1-yl)-benzooxazol-5-yl]-amide]

pIC50	SMILES
5.97	O=C(Nc1ccc2oc(N3CCC4(CC3)COC4)nc2c1)c1ccc2c(c1)OCO2 [Example 132, Benzo[1,3]dioxole-5-carboxylic acid [2-(2-oxa-7-aza-spiro[3.5]non-7-yl)-benzooxazol-5-yl]-amide]
6.21	O=C(Nc1ccc2oc(N3CCCC4(COC4)C3)nc2c1)c1ccc2c(c1)OCO2 [Example 133, Benzo[1,3]dioxole-5-carboxylic acid [2-(2-oxa-6-aza-spiro[3.5]non-6-yl)-benzooxazol-5-yl]-amide]
6.06	O=C(Nc1ccc2oc(N3CCC(F)(F)CC3)nc2c1)c1ccc2c(c1)OCO2 [Example 134, Benzo[1,3]dioxole-5-carboxylic acid [2-(4,4-difluoro-piperidin-1-yl)-benzooxazol-5-yl]-amide]
5.96	O=C(Nc1ccc2oc(N3CCC(O)CC3)nc2c1)c1ccc2c(c1)OCO2 [Example 135, Benzo[1,3]dioxole-5-carboxylic acid [2-(4-hydroxy-piperidin-1-yl]-benzooxazol-5-yl]-amide]
5.89	O=C(Nc1ccc2oc(N3CCOCC3)nc2c1)c1ccc2c(c1)OCO2 [Example 136, Benzo[1,3]dioxole-5-carboxylic acid (2-morpholin-4-yl-benzooxazol-5-yl)-amide]
5.79	CN1CCN(c2nc3cc(NC(=O)c4ccc5c(c4)OCO5)ccc3o2)CC1 [Example 137, Benzo[1,3]dioxole-5-carboxylic acid [2-(4-methyl-piperazin-1-yl)-benzooxazol-5-yl]-amide]
5.83	O=C(Nc1ccc2oc(N(C3CC3)C3COC3)nc2c1)c1ccc2c(c1)OCO2 [Example 138, Benzo[1,3]dioxole-5-carboxylic acid [2-(cyclopropyl-oxetan-3-yl-amino)-benzooxazol-5-yl]-amide]
5.96	CCN(CC)c1nc2cc(NC(=O)c3ccc4c(c3)OCO4)ccc2o1 [Example 139, Benzo[1,3]dioxole-5-carboxylic acid (2-diethylamino-benzooxazol-5-yl)-amide]
5.60	O=C(Nc1ccc2oc(N3CC(O)C3)nc2c1)c1ccc2c(c1)CCCO2 [Example 140, Chroman-6-carboxylic acid [2-(3-hydroxy-azetidin-1-yl)-benzooxazol-5-yl]-amide]
4.97	O=C(Nc1ccc2oc(N3CC(F)(F)C3)nc2c1)c1ccc2c(c1)CCCO2 [Example 141, Chroman-6-carboxylic acid [2-(3,3-difluoro-azetidin-1-yl)-benzooxazol-5-yl]-amide]
6.05	O=C(Nc1ccc2oc(N3CCC34CCC4)nc2c1)c1ccc2c(c1)CCCO2 [Example 142, Chroman-6-carboxylic acid [2-(1-aza-spiro[3.3]hept-1-yl)-benzooxazol-5-yl]-amide]
6.17	O=C(Nc1ccc2oc(N3CCC34COC4)nc2c1)c1ccc2c(c1)CCCO2 [Example 143, Chroman-6-carboxylic acid [2-(6-oxa-1-aza-spiro[3.3]hept-1-yl)-benzooxazol-5-yl]-amide]
5.81	O=C(Nc1ccc2oc(N3CCC34CCOC4)nc2c1)c1ccc2c(c1)CCCO2 (stereo not shown) [Example 144, Chroman-6-carboxylic acid [2-(6-oxa-1-aza-spiro[3.4]oct-1-yl)-benzooxazol-5-yl]-amide]
5.85	O=C(Nc1ccc2oc(N3CCC34CCOCC4)nc2c1)c1ccc2c(c1)CCCO2 [Example 145, Chroman-6-carboxylic acid [2-(7-oxa-1-aza-spiro[3.5]non-1-yl)-benzooxazol-5-yl]-amide]
5.50	O=C(Nc1ccc2oc(N3CCCC3)nc2c1)c1ccc2c(c1)CCCO2 [Example 146, Chroman-6-carboxylic acid (2-pyrrolidin-1-yl-benzooxazol-5-yl)-amide]
6.42	O=C(Nc1ccc2oc(N3CCCC34COC4)nc2c1)c1ccc2c(c1)CCCO2 [Example 147, Chroman-6-carboxylic acid [2-(2-oxa-5-aza-spiro[3.4]oct-5-yl)-benzooxazol-5-yl]-amide]
5.73	O=C(Nc1ccc2oc(N3CCCCC3)nc2c1)c1ccc2c(c1)CCCO2 [Example 148, Chroman-6-carboxylic acid (2-piperidin-1-yl-benzooxazol-5-yl)-amide]
